According to patent US6737383B1, “Herbicidal oxadiazolidines” (priority 1999, dated 2004):

How the values were obtained:
[1] = system: black nightshade; test: Test E black nightshade; format: in vivo, Solanum nigra; details: Postemergence
Description: (§1) Compounds evaluated in this test were formulated in a non-phytotoxic solvent mixture which included a surfactant and applied to plants that were in the 1- to 4-leaf stage (postemergence application). A mixture of sandy loam soil and greenhouse potting mix in a 60:40 ratio was used for the postemergence test.
(§2) Plantings of these crops and weed species were adjusted to produce plants of appropriate size for the postemergence test. All plant species were grown using normal greenhouse practices. Crop and weed species include annual bluegrass (Poa annua), blackgrass (Alopecurus myosuroides), black nightshade (Solanum nigra), chickweed (Stellaria media), common poppy (Papaver rhoeas), deadnettle (Lamium amplexicaule), downy brome (Bromus tectorum), field violet (Viola arvensis), galium (Galium aparine), green foxtail (Setaria viridis), Italian ryegrass (Lolium multiflorum), jointed goatgrass (Aegilops cylindrica), kochia (Kochia scoparia), lambsquarters (Chenopodium album), littleseed canarygrass (Phalaris minor), rape (Brassica napus), redroot pigweed (Amaranthus retroflexus), Russian thistle (Salsola kali), scentless chamomile (Matricaria inodora), spring barley (Hordeum vulgare), sugar beet (Beta vulgaris), sunflower (Helianthus annuus), ivyleaf speedwell (Veronica hederaefolia), spring wheat (Triticum aestivum), winter wheat (Triticum aestivum), wild buckwheat (Polygonum convolvulus), wild mustard (Sinapis arvensis), wild oat (Avena fatua), windgrass (Apera spica-venti) and winter barley (Hordeum vulgare).
(§3) Treated plants and untreated controls were maintained in a greenhouse for approximately 21 to 28 days, after which all treated plants were compared to untreated controls and visually evaluated. […] A dash response (-) means no test result.

[2] = system: field violet; test: Test E field violet; format: in vivo, Viola arvensis; details: Postemergence
Summary of the method: (§4)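 Greenhouse-grown plants are treated (postemergence: 1- to 4-leaf stage, sandy loam/potting mix 60:40), then evaluated visually versus untreated controls some 21 to 28 days later.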

[3] = system: jointed goatgrass; test: Test E jointed goatgrass; format: in vivo, Aegilops cylindrica; details: Postemergence
Summary of the method: as §4

[4] = system: kochia; test: Test E kochia; format: in vivo, Kochia scoparia; details: Postemergence
Summary of the method: as §4

[5] = system: littleseed canarygrass; test: Test E littleseed canarygrass; format: in vivo, Phalaris minor; details: Postemergence
Description: as §1, §2, §3

[6] = system: redroot pigweed; test: Test E redroot pigweed; format: in vivo, Amaranthus retroflexus; details: Postemergence
Description: as §1, §2, §3

[7] = system: spring wheat; test: Test E spring wheat; format: in vivo, Triticum aestivum; details: Postemergence
Description: as §1, §2, §3

[8] = system: wild buckwheat; test: Test E wild buckwheat; format: in vivo, Polygonum convolvulus; details: Postemergence
Description: as §1, §2, §3

[9] = system: winter barley; test: Test E winter barley; format: in vivo, Hordeum vulgare; details: Postemergence
Description: as §1, §2, §3

[10] = system: annual bluegrass; test: Test E annual bluegrass; format: in vivo, Poa annua; details: Preemergence
[11] = system: black nightshade; test: Test E black nightshade; format: in vivo, Solanum nigra; details: Preemergence
[12] = system: chickweed; test: Test E chickweed; format: in vivo, Stellaria media; details: Preemergence
[13] = system: downy brome; test: Test E downy brome; format: in vivo, Bromus tectorum; details: Preemergence
[14] = system: galium; test: Test E galium; format: in vivo, Galium aparine; details: Preemergence
[15] = system: jointed goatgrass; test: Test E jointed goatgrass; format: in vivo, Aegilops cylindrica; details: Preemergence
[16] = system: kochia; test: Test E kochia; format: in vivo, Kochia scoparia; details: Preemergence
[17] = system: lambsquarters; test: Test E lambsquarters; format: in vivo, Chenopodium album; details: Preemergence
[18] = system: scentless chamomile; test: Test E scentless chamomile; format: in vivo, Matricaria inodora; details: Preemergence
[19] = system: sunflower; test: Test E sunflower; format: in vivo, Helianthus annuus; details: Preemergence
[20] = system: windgrass; test: Test E windgrass; format: in vivo, Apera spica-venti; details: Preemergence
[21] = Rate 250 g/ha, 0 to 100 scale (0 no effect, 100 complete control)
[22] = Rate 500 g/ha, 0 to 100 scale, 0 no effect, 100 complete control
[23] = Rate 125 g/ha, 0 to 100 scale (0 no effect, 100 complete control)
[24] = Rate 500 g/ha, 0 to 100 scale where 0 is no effect and 100 is complete control

## CC(C)N(C(=O)n1oc(=O)n(C(C)C)c1=O)c1ccc(F)cc1F [Compound 109]
[1]; Rate 125 g/ha, 0 to 100 scale
  Plant response rating, Blk nightshade: 40
[1]; [21]
  Plant response rating, Blk nightshade: 40
[1]; [22]
  Plant response rating, Blk nightshade: 60
[2]; Rate 125 g/ha, 0 to 100 scale
  Plant response rating, Field violet: 10
[2]; [21]
  Plant response rating, Field violet: 20
[2]; [22]
  Plant response rating, Field violet: 40
[3]; Rate 125 g/ha, 0 to 100 scale
  Plant response rating, Jointed goatgra: 10
[3]; [21]
  Plant response rating, Jointed goatgra: 5
[3]; [22]
  Plant response rating, Jointed goatgra: 30
[4]; Rate 125 g/ha, 0 to 100 scale
  Plant response rating, Kochia: 30
[4]; [21]
  Plant response rating, Kochia: 30
[4]; [22]
  Plant response rating, Kochia: 50
[5]; Rate 125 g/ha, 0 to 100 scale
  Plant response rating, LS canarygrass: 25
[5]; [21]
  Plant response rating, LS canarygrass: 50
[5]; [22]
  Plant response rating, LS canarygrass: 65
[6]; Rate 125 g/ha, 0 to 100 scale
  Plant response rating, Redroot pigweed: 20
[6]; [21]
  Plant response rating, Redroot pigweed: 15
[6]; [22]
  Plant response rating, Redroot pigweed: 15
[7]; Rate 125 g/ha, 0 to 100 scale
  Plant response rating, Spring Wheat: 30
[7]; [21]
  Plant response rating, Spring Wheat: 20
[7]; [22]
  Plant response rating, Spring Wheat: 10
[8]; Rate 125 g/ha, 0 to 100 scale
  Plant response rating, Wild buckwheat: 10
[8]; [21]
  Plant response rating, Wild buckwheat: 20
[8]; [22]
  Plant response rating, Wild buckwheat: 10
[9]; Rate 125 g/ha, 0 to 100 scale
  Plant response rating, Barley (winter): 40
[9]; [21]
  Plant response rating, Barley (winter): 20
[9]; [22]
  Plant response rating, Barley (winter): 10
[10]; [23]
  Plant response rating, Annual bluegras: 40
[10]; Rate 250 g/ha, 0 to 100 scale
  Plant response rating, Annual bluegras: 90
[10]; [24]
  Plant response rating, Annual bluegras: 75
[11]; [23]
  Plant response rating, Blk nightshade: 75
[11]; Rate 250 g/ha, 0 to 100 scale
  Plant response rating, Blk nightshade: 90
[11]; [24]
  Plant response rating, Blk nightshade: 90
[12]; [23]
  Plant response rating, Chickweed: 40
[12]; [24]
  Plant response rating, Chickweed: 100
[13]; [23]
  Plant response rating, Downy brome: 0
[13]; Rate 250 g/ha, 0 to 100 scale
  Plant response rating, Downy brome: 80
[13]; [24]
  Plant response rating, Downy brome: 60
[14]; [23]
  Plant response rating, Galium: 100
[14]; Rate 250 g/ha, 0 to 100 scale
  Plant response rating, Galium: 100
[14]; [24]
  Plant response rating, Galium: 100
[15]; [23]
  Plant response rating, Jointed goatgra: 20
[15]; Rate 250 g/ha, 0 to 100 scale
  Plant response rating, Jointed goatgra: 65
[15]; [24]
  Plant response rating, Jointed goatgra: 70
[16]; [23]
  Plant response rating, Kochia: 0
[16]; Rate 250 g/ha, 0 to 100 scale
  Plant response rating, Kochia: 50
[16]; [24]
  Plant response rating, Kochia: 100
[17]; [23]
  Plant response rating Lambsquarters: 60
[17]; Rate 250 g/ha, 0 to 100 scale
  Plant response rating Lambsquarters: 100
[17]; [24]
  Plant response rating Lambsquarters: 100
[18]; [23]
  Plant response rating, Scentless chamo: 0
[18]; Rate 250 g/ha, 0 to 100 scale
  Plant response rating, Scentless chamo: 30
[18]; [24]
  Plant response rating, Scentless chamo: 30
[19]; [23]
  Plant response rating, Sunflower: 0
[19]; Rate 250 g/ha, 0 to 100 scale
  Plant response rating, Sunflower: 10
[19]; [24]
  Plant response rating, Sunflower: 5
[20]; [23]
  Plant response rating, Windgrass: 100
[20]; [24]
  Plant response rating, Windgrass: 100
